Measured values: patent US4605744A, “Imidazole derivatives” (Hoffmann-La Roche Inc., priority 1985, dated 1986)
Counter-ions that a name gives are not always drawn. Like-named read-outs stand apart in the source and are kept apart here.

Tests used:
E. coli 257 [1] = assay: In vitro antibacterial activity (MIC, Mueller-Hinton broth); format: cell-based; settings: Escherichia coli, 257, E. coli 257; read-out: MIC
Procedure, shortened: (§1)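 Overnight cultures, diluted 10^-2, were added at 1.5 μl per well to twofold drug series (128–0.008 μg/ml) in Mueller-Hinton broth.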

C. freundii 8ASM = assay: In vitro antibacterial activity (MIC); format: cell-based; settings: Citrobacter freundii, 8ASM, C. freundii 8ASM; read-out: MIC
Procedure, shortened: as §1

E. aerogenes 503-478 = assay: In vitro antibacterial activity (MIC); format: cell-based; settings: Klebsiella aerogenes, 503478, E. aerogenes 503-478; read-out: MIC
Procedure, shortened: as §1

E. aerogenes 8 = assay: In vitro antibacterial activity (MIC); format: cell-based; settings: Klebsiella aerogenes; E. aerogenes 8; read-out: MIC
Procedure, shortened: as §1

E. cloacae 214 = assay: In vitro antibacterial activity (MIC); format: cell-based; settings: Enterobacter cloacae, 214, E. cloacae 214; read-out: MIC
Procedure, shortened: as §1

E. cloacae 24 = assay: In vitro antibacterial activity (MIC); format: cell-based; settings: Enterobacter cloacae, 24, E. cloacae 24; read-out: MIC
Procedure, shortened: as §1

E. cloacae 5699 = assay: In vitro antibacterial activity (MIC); format: cell-based; settings: Enterobacter cloacae, 5699, E. cloacae 5699; read-out: MIC
Procedure, shortened: as §1

E. cloacae 6951 = assay: In vitro antibacterial activity (MIC); format: cell-based
Procedure, shortened: as §1

E. cloacae 9570A = assay: In vitro antibacterial activity (MIC); format: cell-based; settings: Enterobacter cloacae, read-out: MIC
Procedure, shortened: as §1

E. coli 503-455 = assay: In vitro antibacterial activity (MIC); format: cell-based; settings: Escherichia coli, 503455
Procedure, shortened: as §1

K. pneumoniae 8357 = assay: In vitro antibacterial activity (MIC); format: cell-based; settings: Klebsiella pneumoniae, 8357, K. pneumoniae 8357; read-out: MIC
Procedure, shortened: as §1

P. aeruginosa 5700 = assay: In vitro antibacterial activity (MIC); format: cell-based; settings: Pseudomonas aeruginosa, 5700, P. aeruginosa 5700; read-out: MIC
Procedure, shortened: as §1

P. aeruginosa B = assay: In vitro antibacterial activity (MIC); format: cell-based; settings: Pseudomonas aeruginosa, read-out: MIC
Procedure, shortened: as §1

P. aeruginosa POW 151 = assay: In vitro antibacterial activity (MIC); format: cell-based; settings: Pseudomonas aeruginosa, POW151
Procedure, shortened: as §1

P. mirabilis 190 = assay: In vitro antibacterial activity (MIC); format: cell-based; settings: Proteus mirabilis, 190, P. mirabilis 190; read-out: MIC
Procedure, shortened: as §1

P. mirabilis 90 = assay: In vitro antibacterial activity (MIC); format: cell-based; settings: Proteus mirabilis, 90, P. mirabilis 90; read-out: MIC
Procedure, shortened: as §1

S. aureus 1059B = assay: In vitro antibacterial activity (MIC); format: cell-based; settings: Staphylococcus aureus, read-out: MIC
Procedure, shortened: as §1

S. faecalis C1 = assay: In vitro antibacterial activity (MIC); format: cell-based; settings: Enterococcus faecalis; S. faecalis C1; read-out: MIC
Procedure, shortened: as §1

S. marcescens S2 = assay: In vitro antibacterial activity (MIC); format: cell-based; settings: Serratia marcescens; S. marcescens S2; read-out: MIC
Procedure, shortened: as §1

S. marcescens S3 = assay: In vitro antibacterial activity (MIC); format: cell-based; settings: Serratia marcescens; S. marcescens S3; read-out: MIC
Procedure, shortened: as §1

S. marcescens S5 = assay: In vitro antibacterial activity (MIC); format: cell-based; settings: Serratia marcescens, S5, S. marcescens S5; read-out: MIC
Procedure, shortened: as §1

S. pneumoniae 6301 = assay: In vitro antibacterial activity (MIC); format: cell-based
Procedure, shortened: as §1

E. coli 257 [2] = assay: In vivo antibacterial activity (PD50); settings: Escherichia coli, 257, sc
S. marcescens SM = assay: In vivo antibacterial activity (PD50); settings: Serratia marcescens, sc
S. pneumoniae 6302 = assay: In vivo antibacterial activity (PD50); settings: Streptococcus pneumoniae, 6302, sc
E. cloacae 4633 = assay: In vivo activity alone and in combination (PD50, FIC); settings: Enterobacter cloacae, 4633; sc; alone; read-out: PD50 (alone)
Method: (§2) In Tables 9-14, the results of the in vivo activity against certain microorganisms of compounds I, M and N as given. […] The results in these Tables and the PD50 's were determined by the procedure set forth on page 160 in Beskid et al., Antimicrobial Agents and Chemotherapy, Vol. 20, No. 2 pp. 159-167 (Aug. 1981) for "in vivo studies".
(§3) In the Tables, the fractional inhibitory concentration index (FIC) for synergistic combination of a compound of this invention (X) with known antibiotic compound (Y) is determined by the following formula:
(§4) FIC=(PD50 (X combination)/PD50 (X alone)+(PD50 (Y
(§5) combination)/PD50 (Y alone)
(§6) An FIC of ≤0.60 is indicative of synergy. The synergy rating in the Tables is as follows:
(§7) In the combination, the parts are parts by weight, i.e. 10 to 1 is 10 parts by weight to 1 part by weight.

E. coli BC5524 = assay: as above; settings: Escherichia coli, BC5524; sc; alone; read-out: PD50 (alone)
Method: as §2, §3, §4, §5, §6, §7

K. pneumoniae 39 = assay: as above; settings: Klebsiella pneumoniae, 39, sc, alone
Method: as §2, §3, §4, §5, §6, §7

K. pneumoniae 503-990A = assay: as above; settings: Klebsiella pneumoniae, 503990A, sc, alone
Method: as §2, §3, §4, §5, §6, §7

K. pneumoniae R2296 = assay: as above; settings: Klebsiella pneumoniae, sc, alone
Method: as §2, §3, §4, §5, §6, §7

P. aeruginosa 6720 = assay: In vivo antibacterial activity (PD50); settings: Pseudomonas aeruginosa, 6720, sc, challenge 35 LD50s, 2 treatments, Table 11
P. aeruginosa 8710 = assay: In vivo antibacterial activity (PD50); settings: Pseudomonas aeruginosa, 8710, sc, challenge >10^4 LD50s, 2 treatments, Table 11, read-out: PD50
P. aeruginosa 6799 = assay: In vivo antibacterial activity (PD50); settings: Pseudomonas aeruginosa, 6799, sc, sc; challenge 71 LD50s; 2 treatments; Table 11; read-out: PD50
K. pneumoniae HE7 = assay: In vivo antibacterial activity (PD50); settings: Klebsiella pneumoniae, HE7, sc, challenge 1000 LD50s, 2 treatments, Table 11

SMILES	MIC (E. coli 257 [1])	MIC (C. freundii 8ASM)	MIC (E. aerogenes 503-478)	MIC (E. aerogenes 8)	MIC (E. cloacae 214)	MIC (E. cloacae 24)	MIC (E. cloacae 5699)	MIC (E. cloacae 9570A)	MIC (E. coli 503-455)	MIC (K. pneumoniae 8357)	MIC (P. aeruginosa 5700)	MIC (P. aeruginosa B)	MIC (P. aeruginosa POW 151)	MIC (P. mirabilis 190)	MIC (P. mirabilis 90)	MIC (S. aureus 1059B)	MIC (S. faecalis C1)	MIC (S. marcescens S2)	MIC (S. marcescens S3)	MIC (S. marcescens S5)	also measured
CC1(C)S[C@@H]2[C@H](N=CN3CCC(CCCn4ccnc4N)CC3)C(=O)N2[C@H]1C(=O)O [I, [2S-(2alpha,5alpha,6beta)]-6-[[[4-[3-(2-amino-1H-imidazol-1-yl)propyl]piperidinyl]methylene]amino]-3,3-dimethyl-7-oxo-4-thia-1-azabicyclo[3.2.0]hpetane-2-carboxylic acid hydrochloride]	0.031 µg/mL	0.031 µg/mL	1 µg/mL	128 µg/mL	0.062 µg/mL	0.125 µg/mL	0.062 µg/mL	0.125 µg/mL	1 µg/mL	0.062 µg/mL	0.062 µg/mL	0.062 µg/mL	> 128 µg/mL	0.125 µg/mL	4 µg/mL	64 µg/mL	> 128 µg/mL	0.062 µg/mL	0.062 µg/mL	0.25 µg/mL	MIC (E. cloacae 6951; Enterobacter cloacae, 6951): 8 µg/mL; MIC (S. pneumoniae 6301; Streptococcus pneumoniae, 6301): 2 µg/mL; ED50 (E. coli 257 [2]; Table 9): < 0.2 mg/kg; ED50 (S. marcescens SM; Table 9): > 250 mg/kg; ED50 (S. pneumoniae 6302; Table 9): 202 mg/kg; ED50 (E. cloacae 4633): 6.4 mg/kg; ED50 (E. coli BC5524): > 250 mg/kg; ED50 (K. pneumoniae 39): 115 mg/kg; ED50 (K. pneumoniae 503-990A; Table 14 line (1)): < 2 mg/kg; ED50 (K. pneumoniae 503-990A; Table 14 line (2)): < 2 mg/kg; ED50 (K. pneumoniae R2296): > 250 mg/kg
CC1(C)S[C@@H]2[C@H](N=CN3CCC(CCC4=NCCN4)CC3)C(=O)N2[C@H]1C(=O)O [N, [2S-(2alpha,5alpha,6beta)]-6-[[[4-[4,5-dihydro-1H-imidazol-2-yl)ethyl]-1-piperidinyl]methylene]amino]-3,3-dimethyl-7-oxo-4-thia-1-azabicyclo[3.2.0]heptane-2-carboxylic acid hydrochloride]	0.031 µg/mL	0.031 µg/mL	4 µg/mL	32 µg/mL	0.062 µg/mL	0.125 µg/mL	0.062 µg/mL	0.062 µg/mL	1 µg/mL	0.125 µg/mL	0.062 µg/mL	0.062 µg/mL	> 128 µg/mL	0.125 µg/mL	0.125 µg/mL	64 µg/mL	64 µg/mL	0.062 µg/mL	0.062 µg/mL	0.25 µg/mL	MIC (E. cloacae 6951; Enterobacter cloacae, 6951, E. cloacae 6951, read-out: MIC): 8 µg/mL; MIC (S. pneumoniae 6301; Streptococcus pneumoniae, 6301, S. pneumoniae 6301, read-out: MIC): 1 µg/mL; ED50 (E. coli 257 [2]; challenge >10^4 LD50s, 1 treatment, Table 11): < 1 mg/kg; ED50 (S. marcescens SM; challenge 489 LD50s, 2 treatments, Table 11): 19 mg/kg; ED50 (S. pneumoniae 6302; challenge 1000 LD50s, 1 treatment, Table 11): 78 mg/kg; ED50 (P. aeruginosa 6720): 20 mg/kg; ED50 (P. aeruginosa 8710): 50 mg/kg; ED50 (P. aeruginosa 6799): > 250 mg/kg; ED50 (K. pneumoniae HE7): > 250 mg/kg; ED50 (E. cloacae 4633): 12 mg/kg; ED50 (E. coli BC5524): 114 mg/kg; ED50 (K. pneumoniae 39): 18 mg/kg; ED50 (K. pneumoniae 503-990A): 5.5 mg/kg; ED50 (K. pneumoniae R2296): > 250 mg/kg
